In US20220218852A1, “NOVEL RADIOLABELLED CXCR4-TARGETING COMPOUNDS FOR DIAGNOSIS AND THERAPY” (PROVINCIAL HEALTH SERVICES AUTHORITY, priority 2019, published 2022):
Where two headings read alike, the source gives them in different places. Positions of bridges follow the written chain, without caps; N, C: chain ends. Non-standard residues stand in square brackets, D forms with d. Residues, ends and D or L forms follow the SMILES beside them. Groups on a side chain read outwards from the residue. Chains are numbered I, II in the order given. *: point of attachment. X5 = C[N+](C)(Cc1cn(CC(=O)*)nn1)C[B-](F)(F)F; 2Nal = N[C@@H](Cc1ccc2ccccc2c1)C(=O)O; X3 = C[N+](C)(CCCC(=O)*)C[B-](F)(F)F; Lys(iPr) = CC(C)NCCCC[C@H](N)C(=O)O

How the values were obtained:
CXCR4 [1] = target: T1, CXCR4 (Homo sapiens, UniProt P61073); details: Peng et al. 2015; read-out: IC50, block SDF-1a binding to CXCR4; cited from earlier work
T1 construct: expressed in transfected cells; host or cells: CHO:CXCR4 cells (gift from NIH); CHO:WT used as the control line
T1 sequence (P61073 whole entry): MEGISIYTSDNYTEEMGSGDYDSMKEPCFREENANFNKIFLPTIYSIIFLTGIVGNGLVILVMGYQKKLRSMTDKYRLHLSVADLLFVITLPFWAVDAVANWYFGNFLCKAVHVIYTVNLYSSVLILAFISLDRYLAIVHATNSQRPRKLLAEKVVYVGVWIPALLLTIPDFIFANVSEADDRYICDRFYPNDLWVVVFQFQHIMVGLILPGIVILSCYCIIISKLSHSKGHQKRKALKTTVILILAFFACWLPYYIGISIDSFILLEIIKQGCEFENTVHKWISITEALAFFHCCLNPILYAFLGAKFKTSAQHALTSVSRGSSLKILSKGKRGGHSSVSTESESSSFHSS

CXCR4 [2] = target: T1, CXCR4; test: Competition binding assay ([^125I]SDF-1α, CHO:CXCR4 cells); details: competitive binding vs [^125I]SDF-1α, read-out: IC50 (nM), binding affinity for CXCR4
Procedure: The binding affinities of nonlabelled peptides for CXCR4 were determined using a competition binding assay using the CHO:CXCR4 cells. Briefly, CHO:CXCR4 cells (200,000 cells/well) were plated in a 24-well BioCoat™ Poly-D-Lysine Multiwell Plates (Corning) the previous night. The next day, each well was incubated with RPMI-1640 medium (Life Technologies Corporations) supplemented with 20 mM HEPES and 2 mg/mL BSA, [^125I]SDF-1α (0.01 nM, Perkin Elmer) and competing non-radioactive ligands ([…]) and incubated for 1-1.5 hours at 27° C. with moderate shaking. After incubation, the cells were washed with ice-cold PBS twice, trypsinized and counted on a Perkin Elmer WIZARD 2480 gamma counter. IC50 values were determined by a nonlinear regression analysis to fit a logistic equation to the competition data using GraphPad Prism 7.

Compound | IC50 (CXCR4 [1]) [nM] | IC50 (CXCR4 [2]) [nM]
cyclo[Phe-Tyr-Lys(iPr)-D-Arg-2-NaI-Gly-D-Glu]-Lys(iPr)-NH2 [LY2510924] | 0.079 | 
CC(C)NCCCC[C@@H]1NC(=O)[C@H](Cc2ccc(O)cc2)NC(=O)[C@H](Cc2ccccc2)NC(=O)CC[C@H](C(=O)N[C@@H](CCCCNC(C)C)C(=O)N[C@@H](CCCCNC(=O)[C@H](CCC(=O)O)NC(=O)[C@H](CCC(=O)O)NC(=O)[C@H](CCC(=O)O)NC(=O)[C@H](CCCCNC(=O)[C@H](CCC(=O)O)NC(=O)Cn2cc(C[N+](C)(C)C[B-](F)(F)F)nn2)NC(=O)[C@H](CCC(=O)O)NC(=O)Cn2cc(C[N+](C)(C)C[B-](F)(F)F)nn2)C(N)=O)NC(=O)CNC(=O)[C@H](Cc2ccc3ccccc3c2)NC(=O)[C@@H](CCCNC(=N)N)NC1=O [BL04] (I: FY[Lys(iPr)][dR][2Nal]G[dE][Lys(iPr)]K-NH2 / II: X5-EK([Glu-X5])EEE; amide I:9-II:C; lactam I:N-I:7) |  | 63 ± 9
CC(C)NCCCC[C@@H]1NC(=O)[C@H](Cc2ccc(O)cc2)NC(=O)[C@H](Cc2ccccc2)NC(=O)CC[C@H](C(=O)N[C@@H](CCCCNC(C)C)C(=O)N[C@@H](CCCCNC(=O)[C@H](CCC(=O)O)NC(=O)[C@H](CCC(=O)O)NC(=O)[C@H](CCC(=O)O)NC(=O)Cn2cc(C[N+](C)(C)C[B-](F)(F)F)nn2)C(N)=O)NC(=O)CNC(=O)[C@H](Cc2ccc3ccccc3c2)NC(=O)[C@@H](CCCNC(=N)N)NC1=O [BL09] (FY[Lys(iPr)][dR][2Nal]G[dE][Lys(iPr)]K([Glu-Glu-Glu-X5])-NH2; lactam N-7) |  | 13.4 ± 2.3
CC(C)NCCCC[C@@H]1NC(=O)[C@H](Cc2ccc(O)cc2)NC(=O)[C@H](Cc2ccccc2)NC(=O)CC[C@H](C(=O)N[C@@H](CCCCNC(C)C)C(=O)N[C@@H](CCCCNC(=O)[C@H](CCC(=O)O)NC(=O)[C@H](CCC(=O)O)NC(=O)[C@H](CCC(=O)O)NC(=O)CCC[N+](C)(C)C[B-](F)(F)F)C(N)=O)NC(=O)CNC(=O)[C@H](Cc2ccc3ccccc3c2)NC(=O)[C@@H](CCCNC(=N)N)NC1=O [BL08] (FY[Lys(iPr)][dR][2Nal]G[dE][Lys(iPr)]K([Glu-Glu-Glu-X3])-NH2; lactam N-7) |  | 11.6 ± 7
